Experimental data published in ChEMBL document CHEMBL1124469, “Synthesis and dopaminergic activity of 2-substituted octahydrobenzo[f]quinolines” (J Med Chem, 1989).

Assays:
[1] = target: D(2) dopamine receptor (Bos taurus) (UniProt P20288); assay: Low percent binding affinity for different states of the Dopamine D-2 receptor in bovine anterior pituitary membranes, using radioligand [3H]spiroperidol; type: cell membranes
[2] = target: D(2) dopamine receptor (Bos taurus) (UniProt P20288); assay: High percent binding affinity for different states of the Dopamine receptor D2 in bovine anterior pituitary membranes, using radioligand [3H]spiroperidol
D(2) dopamine receptor [3] = target: T1, D(2) dopamine receptor (Bos taurus, UniProt P20288); assay: High binding affinity for dopamine D-2 receptor from bovine anterior pituitary membrane, using radioligand [3H]spiroperidol
T1 sequence (P20288 whole entry): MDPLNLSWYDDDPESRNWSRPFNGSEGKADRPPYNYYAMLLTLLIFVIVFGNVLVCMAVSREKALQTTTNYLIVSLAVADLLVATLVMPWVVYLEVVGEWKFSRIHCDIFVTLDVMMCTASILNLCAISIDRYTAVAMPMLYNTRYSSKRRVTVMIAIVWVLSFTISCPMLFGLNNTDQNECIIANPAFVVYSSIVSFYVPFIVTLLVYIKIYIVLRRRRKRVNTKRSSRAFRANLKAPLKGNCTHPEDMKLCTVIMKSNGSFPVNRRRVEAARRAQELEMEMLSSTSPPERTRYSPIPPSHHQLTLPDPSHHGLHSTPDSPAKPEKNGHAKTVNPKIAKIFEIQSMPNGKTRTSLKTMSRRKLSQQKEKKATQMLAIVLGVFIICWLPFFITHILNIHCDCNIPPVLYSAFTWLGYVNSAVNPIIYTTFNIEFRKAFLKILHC

D(2) dopamine receptor [4] = target: T1, D(2) dopamine receptor; assay: Low binding affinity for dopamine D-2 receptor from bovine anterior pituitary membrane, using radioligand [3H]spiroperidol
D(2) dopamine receptor [5] = target: T1, D(2) dopamine receptor; assay: Low binding affinity for dopamine receptor D2 from bovine anterior pituitary membrane, using radioligand [3H]spiroperidol in bovine anterior pituitary membranes; type: cell membranes
[6] = target: D(2) dopamine receptor (Bos taurus) (UniProt P20288); assay: Low percent binding affinity for different states of the dopamine receptor D2 in bovine anterior pituitary membranes, using radioligand [3H]spiroperidol; type: cell membranes
D(2) dopamine receptor [7] = target: T1, D(2) dopamine receptor; assay: Low binding affinity for dopamine D-2 receptor from bovine anterior pituitary membrane, using radioligand [3H]spiroperidol in bovine anterior pituitary membranes; type: cell membranes
D(2) dopamine receptor [8] = target: T1, D(2) dopamine receptor; assay: High binding affinity for dopamine D-2 receptor from bovine anterior pituitary membrane, using radioligand [3H]spiroperidol in bovine anterior pituitary membranes; type: cell membranes

Sequence of D(2) dopamine receptor (Bos taurus) (P20288 whole entry): as above

| SMILES | Low [1] [%] | Percent of receptors in high-affinity state [2] [%] | Ki (D(2) dopamine receptor [4]) [µM] | also measured |
| --- | --- | --- | --- | --- |
| CCCN1C[C@H](CSC)C[C@@H]2c3cc(O)c(O)cc3CC[C@H]21 | 67 | 33 |  |  |
| CCCN1C[C@H](C)C[C@@H]2c3cccc(O)c3CC[C@H]21 | 100 |  |  |  |
| CCCN1C[C@H](C)C[C@@H]2c3cc(O)ccc3CC[C@H]21 | 87 | 13 | 1.94 | Ki (D(2) dopamine receptor [3]): 0.008 µM |
| CCCN1C[C@H](CSC)C[C@@H]2c3cccc(O)c3CC[C@H]21 |  |  |  | Ki (D(2) dopamine receptor [5]): 0.25 µM; Low [6]: 100% |
| NCCc1ccc(O)c(O)c1 | 69 |  |  | High [2]: 31% |
| CCCN1C[C@H](CC#N)C[C@@H]2c3ccc(O)c(O)c3CC[C@H]21 | 100 |  | 1.46 |  |
| CCCN1C[C@H](CC#N)C[C@@H]2c3cc(O)c(O)cc3CC[C@H]21 | 56 | 44 | 0.36 | Ki (D(2) dopamine receptor [3]): 0.006 µM |
| CCCN1C[C@H](CC#N)C[C@@H]2c3cc(O)ccc3CC[C@H]21 | 70 | 30 |  | Ki (D(2) dopamine receptor [7]): 0.28 µM; Ki (D(2) dopamine receptor [8]): 0.004 µM |
| CCCN1C[C@H](CSC)C[C@@H]2c3cc(O)ccc3CC[C@H]21 | 79 | 21 |  | Ki (D(2) dopamine receptor [7]): 1.21 µM; Ki (D(2) dopamine receptor [8]): 0.014 µM |
| CCCN1C[C@H](CSC)C[C@@H]2c3ccc(O)c(O)c3CC[C@H]21 | 100 |  | 1.73 |  |
| CCCN1C[C@H](CC#N)C[C@@H]2c3cccc(O)c3CC[C@H]21 | 100 |  |  | Ki (D(2) dopamine receptor [7]): 5.39 µM |
